Laboratory results reported in publication PMC8742467, “Therapeutical interference with the epigenetic landscape of germ cell tumors: a comparative drug study and new mechanistical insights” (Clinical Epigenetics, 2022).

How the values were obtained:
GCT cell lines = experiment: XTT cell viability assay, GCT cell lines (pre-screen / summary); type: cell-based, Human; settings: first pre-screen, XTT; read-out: EC50
Method: The […] (XTT) assays were performed as described previously. In summary, for GCT and fibroblast cell lines 5 × 10^3 cells (3 × 10^3 for UC, PCa and RCC cell lines) per 96-well were seeded and different drug concentrations (see Additional file 2: Fig. S2, Additional file 3: Fig. S3) or corresponding solvents were added to the cells the following day. For drug details see Additional file 12: Table S2 C. Each condition was analyzed in four technical replicates and EC50 values were calculated by GraphPad Prism v8.

CC (JAR) = experiment: Flow cytometry apoptosis (Annexin V/PI), CC; type: cell-based, Human; settings: EC50, 16 h
Method: (§1) For Annexin V/PI staining, cells were washed with Annexin V Binding Buffer before being resuspended in 70 µl Annexin V Binding Buffer and 2.5 μl Annexin V FITC-conjugate (both Miltenyi Biotec, Bergisch Gladbach, Germany) and 15 µg PI (Sigma-Aldrich, Taufkirchen, Germany) and incubated in the dark at room temperature for 15 min. 500 µl of Annexin V Binding Buffer was added before measurement. For the cell cycle analysis, cells were washed with PBS (phosphate buffered saline), fixed by ice cold 70% ethanol and stained with 2 µg/ml PI and 200 µg/ml RNaseA (Quiagen, Hilden, Germany 100 mg/ml) in PBS shortly before every measurement. At least 5 × 10^4 cells were counted and analyzed using the MACSQuant software v 2.13.0.

YST (GCT72) = experiment: Flow cytometry apoptosis (Annexin V/PI), YST; type: cell-based, Human; settings: EC50, 16 h
Method: as §1

2102EP-R = experiment: Flow cytometry apoptosis (Annexin V/PI), 2102EP-R; type: cell-based, Human; settings: EC50, 16 h, compared to the parental cell line
GCT cells = experiment: Flow cytometry cell cycle (PI), GCT cells; type: cell-based, Human; settings: EC50, 16 h
Method: as §1

[1] = test system: histone modifications in 2102EP cells; experiment: Mass spectrometry analysis of histone modifications (Mod Spec); type: cell-based, Human
Method: 2102EP cells were treated with the EC50 concentrations for Quisinostat, JIB-04, Chaetocin, MZ-1, LP99, PRT4165, GSK343 and DMSO as solvent control. The cells were harvested via trypsinization after 16 h. The mass spectrometric analysis of histone modifications was outsourced to the Mod Spec service by Active Motif (Carlsbad, CA, USA). Histone extraction and mass spectrometric analysis was performed as described previously. Raw data were transformed into z-scores as the input. The heatmap was generated in R using ‘pheatmap’ with default settings and provided by Active Motif.

[2] = test system: transcriptome of 2102EP cells; experiment: RNA sequencing; type: cell-based, Human; settings: 16 h
Method: Transcriptome analysis has been performed as previously described at the core facility ‘Genomics & Transcriptomics’ (Prof. Dr. Karl Köhrer, Biomedical Research Center, Heinrich Heine University, Düsseldorf, Germany) and has been publicly shared via GEO (https://www.ncbi.nlm.nih.gov/geo/, GSE189472). RNA samples were quantified and measured as previously described. Statistical analyses were performed using the ‘Differential Expression in two groups’ tool (version 1.02) (Qiagen) and the resulting p values were corrected for multiple testing by false discovery rate (FDR). Accompanying PCA and heatmap were generated using Qlucore Omics Explorer 3.7 (Qlucore AB, Lund, Sweden). Values of solvent controls wereaveraged from the studies GSE189472, GSE190792 and GSE190022 [95].

[3] = test system: phosphorylated kinase targets in 2102EP cells; experiment: Proteome Profiler Human Phospho-Kinase Array; type: cell-based; settings: 16 h
Method: For the detection of phosphorylated kinase targets, the Proteome Profiler Human Phospho-Kinase Array Kit (R&D Systems, Abingdon, UK) was used according to the manufacturer’s instructions. The ChemiDoc Imaging System (Bio-Rad Laboratories, Feldkirchen, Germany) was used for detection. 2102EP cells were harvested after 16 h of treatment with the epi-drugs. Pixel density was analyzed using Fiji ImageJ 1.53c.

fibroblast control cells = experiment: Flow cytometry apoptosis (Annexin V/PI), fibroblasts; type: cell-based, Human; settings: EC50, 16 h
Method: as §1

[4] = 2102EP cells, Mod Spec raw data
[5] = sorted data log2>±1.5, FDR p<0.05

## Cc1cc(=O)n(C)c2cc(N3C(=O)CC[C@H](NS(=O)(=O)CC(C)C)[C@H]3c3ccc(Cl)cc3)ccc12 [LP99]
GCT cell lines
  EC50: ≤ 50 µM
CC (JAR)
  apoptosis induction in JAR: negligible
YST (GCT72)
  apoptosis induction in GCT72: negligible
2102EP-R
  apoptosis induction in 2102EP-R: did not induce apoptosis
GCT cells
  cell cycle phase accumulation in GCT cells: accumulated in the G0/G1 phase
[1]; [4]
  H1.4: K25AC, % of peptide pool: 0.009028%
  H1.4: K25ME1, % of peptide pool: 2.269%
  H1.4: K25ME2, % of peptide pool: 0.02267%
  H1.4: K25ME3, % of peptide pool: 0.00557%
  H1.4: K25UN, % of peptide pool: 97.6933%
  H2A1: K13AC, % of peptide pool: 0.01093%
  H2A1: K13UN, % of peptide pool: 99.9891%
  H2A1: K15AC, % of peptide pool: 0.001748%
  H2A1: K15UB, % of peptide pool: 0%
  H2A1: K15UN, % of peptide pool: 99.9983%
  H2A3: K13AC, % of peptide pool: 0.03196%
  H2A3: K13UN, % of peptide pool: 99.968%
  H2A3: K15AC, % of peptide pool: 0.03362%
  H2A3: K15UB, % of peptide pool: 0%
  H2A3: K15UN, % of peptide pool: 99.9664%
  H2A: K5AC, % of peptide pool: 12.5375%
  H2A: K5UN, % of peptide pool: 87.4625%
  H2A: K9AC, % of peptide pool: 1.353%
  H2A: K9UN, % of peptide pool: 98.6475%
  H2A: K36AC, % of peptide pool: 0.0347%
  H2A: K36UN, % of peptide pool: 99.9653%
  H3: K9AC, % of peptide pool: 0.6876%
  H3: K9ME1, % of peptide pool: 38.1257%
  H3: K9ME2, % of peptide pool: 23.7135%
  H3: K9ME3, % of peptide pool: 2.367%
  H3: K9UN, % of peptide pool: 35.1066%
  H3: K14AC, % of peptide pool: 29.2531%
  H3: K14UN, % of peptide pool: 70.7469%
  H3: K18AC, % of peptide pool: 10.1375%
  H3: K18ME1, % of peptide pool: 0.2014%
  H3: K18UN, % of peptide pool: 89.6611%
  H3: K23AC, % of peptide pool: 16.6835%
  H3: K23ME1, % of peptide pool: 0.02213%
  H3: K23UN, % of peptide pool: 83.2943%
  H3: K56AC, % of peptide pool: 0.1265%
  H3: K56ME1, % of peptide pool: 0.3038%
  H3: K56UN, % of peptide pool: 99.5697%
  H3: K64AC, % of peptide pool: 0.01464%
  H3: K64UN, % of peptide pool: 99.9854%
  H3: K79AC, % of peptide pool: 0.6828%
  H3: K79ME1, % of peptide pool: 14.7289%
  H3: K79ME2, % of peptide pool: 6.113%
  H3: K79ME3, % of peptide pool: 8.372%
  H3: K79UN, % of peptide pool: 70.1029%
  H3: K122AC, % of peptide pool: 0.1106%
  H3: K122UN, % of peptide pool: 99.8894%
  H3: Q19ME1, % of peptide pool: 0.008159%
  H3: Q19UN, % of peptide pool: 99.9918%
  H3: Q55ME1, % of peptide pool: 0.125%
  H3: Q55UN, % of peptide pool: 99.875%
  H3: R42ME2, % of peptide pool: 2.022%
  H3: R42UN, % of peptide pool: 97.9783%
  H3: R49ME2, % of peptide pool: 5.836%
  H3: R49UN, % of peptide pool: 94.1642%
  H3R2UN: K4AC, % of peptide pool: 0.0493%
  H3R2UN: K4ME1, % of peptide pool: 17.3555%
  H3R2UN: K4ME2, % of peptide pool: 0.1607%
  H3R2UN: K4ME3, % of peptide pool: 0.06122%
  H3R2UN: K4UN, % of peptide pool: 82.3733%
  H3R2UN: Q5ME1, % of peptide pool: 0.0589%
  H3R2UN: Q5UN, % of peptide pool: 99.9411%
  H3.1: K27AC, % of peptide pool: 1.848%
  H3.1: K27ME1, % of peptide pool: 50.2872%
  H3.1: K27ME2, % of peptide pool: 19.0002%
  H3.1: K27ME3, % of peptide pool: 2.587%
  H3.1: K27UN, % of peptide pool: 26.2781%
  H3.1: K36AC, % of peptide pool: 0.1934%
  H3.1: K36ME1, % of peptide pool: 15.1441%
  H3.1: K36ME2, % of peptide pool: 47.7578%
  H3.1: K36ME3, % of peptide pool: 20.1942%
  H3.1: K36UN, % of peptide pool: 16.7105%
  H3.3: K27AC, % of peptide pool: 4.526%
  H3.3: K27M, % of peptide pool: 0%
  H3.3: K27ME1, % of peptide pool: 50.6483%
  H3.3: K27ME2, % of peptide pool: 13.3962%
  H3.3: K27ME3, % of peptide pool: 4.205%
  H3.3: K27UN, % of peptide pool: 27.2241%
  H3.3: K36AC, % of peptide pool: 1.988%
  H3.3: K36ME1, % of peptide pool: 13.5047%
  H3.3: K36ME2, % of peptide pool: 50.9616%
  H3.3: K36ME3, % of peptide pool: 19.8606%
  H3.3: K36UN, % of peptide pool: 13.6847%
  H4: K5AC, % of peptide pool: 6.718%
  H4: K5UN, % of peptide pool: 93.2819%
  H4: K8AC, % of peptide pool: 9.0591%
  H4: K8UN, % of peptide pool: 90.9409%
[1]; 2102EP cells, Mod Spec raw data, histone H4 K12 acetylated
  H4: K12AC, % of peptide pool: 5.085 % of peptide pool
[1]; 2102EP cells, Mod Spec raw data, histone H4 K12 unmodified
  H4: K12UN, % of peptide pool: 94.9152 % of peptide pool
[1]; 2102EP cells, Mod Spec raw data, histone H4 K16 acetylated
  H4: K16AC, % of peptide pool: 42.3745 % of peptide pool
[1]; 2102EP cells, Mod Spec raw data, histone H4 K16 unmodified
  H4: K16UN, % of peptide pool: 57.6255 % of peptide pool
[1]; 2102EP cells, Mod Spec raw data, histone H4 K20 acetylated
  H4: K20AC, % of peptide pool: 21.754 % of peptide pool
[1]; 2102EP cells, Mod Spec raw data, histone H4 K20 dimethylated
  H4: K20ME2, % of peptide pool: 43.6517 % of peptide pool
[1]; 2102EP cells, Mod Spec raw data, histone H4 K20 monomethylated
  H4: K20ME1, % of peptide pool: 4.449 % of peptide pool
[1]; 2102EP cells, Mod Spec raw data, histone H4 K20 trimethylated
  H4: K20ME3, % of peptide pool: 1.292 % of peptide pool
[1]; 2102EP cells, Mod Spec raw data, histone H4 K20 unmodified
  H4: K20UN, % of peptide pool: 28.8535 % of peptide pool
[1]; 2102EP, EC50, 16 h, vs solvent control
  change of histone modifications of the expected mode of action (Mod Spec): general decrease in histone acetylation
[2]; [5]
  GJD3 Log2 fold change vs. DMSO: 3.31
  GLIPR1L1 Log2 fold change vs. DMSO: -3.59
  GOLGA6A Log2 fold change vs. DMSO: -4.35
  MTRNR2L8 Log2 fold change vs. DMSO: 3.16
  NCKAP1L Log2 fold change vs. DMSO: -3.90
  TAC1 Log2 fold change vs. DMSO: 3.33
[2]; unsorted data
  A1BG Log2 fold change vs. DMSO: 0.41
  A1CF Log2 fold change vs. DMSO: 1.13
  A2M Log2 fold change vs. DMSO: -0.80
[3]
  CREB, STAT3 and STAT5 phosphorylation and total levels of β-Catenin and HSP60: decreased
  ERK1/2 phosphorylation: decreased

## Cc1ccc(-n2sc3ccccc3c2=O)cc1 [PBIT]
GCT cell lines
  EC50: ≤ 50 µM
CC (JAR)
  apoptosis induction in JAR: negligible
YST (GCT72)
  apoptosis induction in GCT72: negligible
Fibroblast control cells
  apoptosis induction in fibroblast control cells: only a weak apoptosis induction
GCT cells
  cell cycle phase accumulation in GCT cells: accumulated in the G0/G1 phase
